The assay concerns the target T1, human μ opiate receptor (Homo sapiens, UniProt P35372).
T1 construct: purchased PerkinElmer Life Sciences, Zaventem, Belgium RB-HOM; host or cells: CHO-K1 cells (recombinant expression)
The assay can be described thus: Affinity for the human μ opiate receptor ([3H]-naloxone displacement, CHO-K1 membrane preparation, SPA). The class given is binding. The settings on record: compounds prepared via automated synthesis; single measurements at a test concentration of 1 μM. As to the method: The receptor affinity for the human μ opiate receptor is determined in a homogeneous set-up in microtitre plates. For this purpose, dilution series of the substances to be tested are incubated with a receptor membrane preparation (15-40 μg of protein/250 μl of incubation batch) of CHO-K1 cells which express the human μ opiate receptor (RB-HOM receptor membrane preparation from PerkinElmer Life Sciences, Zaventem, Belgium) in the presence of 1 nmol/l of the radioactive ligand [^3H]-naloxone (NET719, PerkinElmer Life Sciences, Zaventem, Belgium) and 1 mg of WGA-SPA-Beads (wheat germ agglutinin SPA beads from Amersham/Pharmacia, Freiburg, Germany) in a total volume of 250 μl for 90 minutes at room temperature. 50 mmol/l of Tris-HCl supplemented with 0.06% of bovine serum albumin are used as the incubation buffer. 100 μmol/l of naloxone are additionally added for determination of the non-specific binding. After the end of the ninety-minute incubation time, the microtitre plates are centrifuged for 20 minutes at 1,000 g and the radioactivity is measured in a β-counter (Microbeta-Trilum, PerkinElmer Wallac, Freiburg, Germany). The percentage displacement of the radioactive ligand from its binding to the human μ opiate receptor is determined at a concentration of the test substances of 1 μmol/l and stated as the percentage inhibition of the specific binding. Starting from the percentage displacement by various concentrations of the test substances, IC50 inhibitory concentrations which cause a 50 percent displacement of the radioactive ligand are calculated. By conversion by means of the Cheng-Prusoff relationship, Ki values for the test substances are obtained.

T1 sequence (P35372 whole entry): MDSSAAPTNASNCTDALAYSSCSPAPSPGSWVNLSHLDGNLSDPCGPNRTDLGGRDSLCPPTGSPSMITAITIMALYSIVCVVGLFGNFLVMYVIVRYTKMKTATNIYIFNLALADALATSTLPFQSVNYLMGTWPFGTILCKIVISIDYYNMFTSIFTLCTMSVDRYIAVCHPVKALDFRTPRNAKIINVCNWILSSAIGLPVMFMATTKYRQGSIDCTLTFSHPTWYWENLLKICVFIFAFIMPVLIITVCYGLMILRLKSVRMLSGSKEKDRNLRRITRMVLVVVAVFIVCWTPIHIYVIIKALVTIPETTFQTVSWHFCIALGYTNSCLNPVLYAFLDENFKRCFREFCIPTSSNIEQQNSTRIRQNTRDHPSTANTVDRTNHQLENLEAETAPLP

On to `CN(C)C(c1cccc(F)c1)C1CCC2(CC1)c1[nH]c3ccccc3c1CCN2C(=O)CC(C)(C)C` (stereo not drawn) [Compound 66, 1-{1,1-[3-(dimethylamino-(3-fluorophenyl)methyl) -pentamethylene]-3,4-dihydro-1H-2,9-diazafluoren-2-yl}-3,3-dimethylbutan-1-one], for which the “μ opioid receptor [1 μmol], % inhibition” value stood at 26%.

For `CN(C)C(c1ccc(Cl)cc1)C1CCC2(CC1)c1[nH]c3ccccc3c1CCN2C(=O)c1cc2ccccc2s1` (stereo not drawn) [Compound 78, 2-(1-benzothien-2-ylcarbonyl)-{1,1-[3-(dimethylamino-(4-chlorophenyl)-methyl)-pentamethylene]-3,4-dihydro-1H-2,9-diazafluorene}], the “μ opioid receptor [1 μmol], % inhibition” value amounted to 11%.

With `CN(C)C(c1ccc(F)cc1)C1CCC2(CC1)c1[nH]c3ccccc3c1CCN2C(=O)C1CCCC1` (stereo not drawn) [Compound 109, 2-cyclopentylcarbonyl-{1,1-[3-(dimethylamino-(4-fluorophenyl)methyl)-pentamethylene]-3,4-dihydro-1H-2,9-diazafluorene}], the “μ opioid receptor [1 μmol], % inhibition” value was determined as 21%. The same measure for `CCCCC(CC)C(=O)N1CCc2c([nH]c3ccccc23)C12CCC(C(c1ccccc1)N(C)C)CC2` (stereo not drawn) [Compound 100, 2-(2-ethylhexanoyl)-{1,1-[3-(dimethylamino-phenylmethyl)-pentamethylene]-3,4-dihydro-1H-2,9-diazafluorene}]: 65%; for `CN(C)C(c1ccc(Cl)cc1)C1CCC2(CC1)c1[nH]c3ccccc3c1CCN2C(=O)CCC1CCCC1` (stereo not drawn) [Compound 95, 2-(3-cyclopentylpropanoyl)-{1,1-[3-(dimethylamino-(4-chlorophenyl)-methyl)-pentamethylene]-3,4-dihydro-1H-2,9-diazafluorene}]: 18%; for `CN(C)C(c1cccc(F)c1)C1CCC2(CC1)c1[nH]c3ccccc3c1CCN2C(=O)Cc1cccs1` (stereo not drawn) [Compound 93, 2-(2-thienylacetyl)-{1,1-[3-(dimethylamino-(3-fluorophenyl)methyl)-pentamethylene]-3,4-dihydro-1H-2,9-diazafluorene}]: 19%. For `CN(C)C(c1ccc(Cl)cc1)C1CCC2(CC1)c1[nH]c3ccccc3c1CCN2C(=O)C1CCCCC1` (stereo not drawn) [Compound 76, 2-(cyclohexylcarbonyl)-{1,1-[3-(dimethylamino-(4-chlorophenyl)methyl)-pentamethylene]-3,4-dihydro-1H-2,9-diazafluorene}], the “μ opioid receptor [1 μmol], % inhibition” value is reported as 15%. The same measure for `CC(C)C(=O)N1CCc2c([nH]c3ccccc23)C12CCC(C(c1ccccc1)N(C)C)CC2` (stereo not drawn) [Compound 101, 2-isobutyryl-{1,1-[3-(dimethylamino-phenylmethyl) -pentamethylene]-3,4-dihydro-1H-2,9-diazafluorene}]: 74%; for `CN(C)C(c1ccc(F)cc1)C1CCC2(CC1)c1[nH]c3ccccc3c1CCN2C(=O)C=Cc1ccccc1` (stereo not drawn) [Compound 86, 1-{1,1-[3-(dimethylamino-(4-fluorophenyl)methyl) -pentamethylene]-3,4-dihydro-1H-2,9-diazafluoren-2-yl}-3-phenylprop-2-en-1-one]: 12%. For the molecule `CCC(=O)N1CCc2c([nH]c3ccccc23)C12CCC(C(c1ccc(Cl)cc1)N(C)C)CC2` (stereo not drawn) [Compound 120, 2-propionyl-{1,1-[3-(dimethylamino-(4-chlorophenyl)methyl)-pentamethylene]-3,4-dihydro-1H-2,9-diazafluorene}], the “μ opioid receptor [1 μmol], % inhibition” value came out at 29%. The same measure for `CC(Oc1ccccc1)C(=O)N1CCc2c([nH]c3ccccc23)C12CCC(C(c1cccc(F)c1)N(C)C)CC2` (stereo not drawn) [Compound 127, 2-(2-phenoxypropanoyl)-{1,1-[3-(dimethylamino-(3-fluorophenyl)methyl)-pentamethylene]-3,4-dihydro-1H-2,9-diazafluorene}]: 55%.

With `CCC(CC)C(=O)N1CCc2c([nH]c3ccccc23)C12CCC(C(c1ccc(F)cc1)N(C)C)CC2` (stereo not drawn) [Compound 139, 1-{1,1-[3-(dimethylamino-(4-fluorophenyl)methyl) -pentamethylene]-3,4-dihydro-1H-2,9-diazafluoren-2-yl}-2-ethylbutan-1-one], the “μ opioid receptor [1 μmol], % inhibition” value worked out at 25%. The same measure for `COc1cccc(CC(=O)N2CCc3c([nH]c4ccccc34)C23CCC(C(c2cccc(F)c2)N(C)C)CC3)c1` (stereo not drawn) [Compound 126, 2-[(3-methoxyphenyl)acetyl]-{1,1-[3-(dimethylamino-(3-fluorophenyl)methyl)-pentamethylene]-3,4-dihydro-1H-2,9-diazafluorene}]: 50%; for `CC(Oc1ccccc1)C(=O)N1CCc2c([nH]c3ccccc23)C12CCC(C(c1ccc(Cl)cc1)N(C)C)CC2` (stereo not drawn) [Compound 133, 2-(2-phenoxypropanoyl)-{1,1-[3-(dimethylamino-(4-chlorophenyl)methyl)-pentamethylene]-3,4-dihydro-1H-2,9-diazafluorene}]: 71%. `CN(C)C(c1ccc(F)cc1)C1CCC2(CC1)c1[nH]c3ccccc3c1CCN2C(=O)CCC1CCCC1` (stereo not drawn) [Compound 85, 2-(3-cyclopentylpropanoyl)-{1,1-[3-(dimethylamino-(4-fluorophenyl)methyl)-pentamethylene]-3,4-dihydro-1H-2,9-diazafluorene}]: the “μ opioid receptor [1 μmol], % inhibition” value turned out to be 50%. The same measure for `CN(C)C(c1ccccc1)C1CCC2(CC1)c1[nH]c3ccccc3c1CCN2C(=O)C=Cc1ccccc1` (stereo not drawn) [Compound 80, 1-{1,1-[3-(dimethylamino-phenylmethyl)-pentamethylene]-3,4-dihydro-1H-2,9-diazafluoren-2-yl}-3-phenylprop-2-en-1-one]: 41%.

Consider `CN(C)C(c1ccccc1)C1CCC2(CC1)c1[nH]c3ccccc3c1CCN2C(=O)COCc1ccccc1` (stereo not drawn) [Compound 83, 2-(benzyloxyacetyl)-{1,1-[3-(dimethylamino-phenylmethyl) -pentamethylene]-3,4-dihydro-1H-2,9-diazafluorene}], for which the “μ opioid receptor [1 μmol], % inhibition” value stood at 50%. The same measure for `CN(C)C(c1ccccc1)C1CCC2(CC1)c1[nH]c3ccccc3c1CCN2C(=O)CC(C)(C)C` (stereo not drawn) [Compound 56, 1-{1,1-[3-(dimethylamino-phenylmethyl)-pentamethylene]-3,4-dihydro-1H-2,9-diazafluoren-2-yl}-3,3-dimethylbutan-1-one]: 36%; for `CN(C)C(c1ccc(Cl)cc1)C1CCC2(CC1)c1[nH]c3ccccc3c1CCN2C(=O)CC(C)(C)C` (stereo not drawn) [Compound 73, 1-{1,1-[3-(dimethylamino-(4-chlorophenyl)methyl) -pentamethylene]-3,4-dihydro-1H-2,9-diazafluoren-2-yl}-3,3-dimethylbutan-1-one]: 24%. The same measure for `CN(C)C(c1ccccc1)C1CCC2(CC1)c1[nH]c3ccccc3c1CCN2C(=O)C1CCCC1` (stereo not drawn) [Compound 125, 2-cyclopentylcarbonyl-{1,1-[3-(dimethylamino-phenylmethyl)-pentamethylene]-3,4-dihydro-1H-2,9-diazafluorene}]: 29%; for `CC(Oc1ccccc1)C(=O)N1CCc2c([nH]c3ccccc23)C12CCC(C(c1ccc(F)cc1)N(C)C)CC2` (stereo not drawn) [Compound 141, 2-(2-phenoxypropanoyl)-{1,1-[3-(dimethylamino-(4-fluorophenyl)methyl)-pentamethylene]-3,4-dihydro-1H-2,9-diazafluorene}]: 47%.
